Values after ≈ are worked out from the molar mass of the structure shown. Read-outs that look alike come from different tables or passages of the source.
What was measured:
hA1AR [1] = target: T1, hA1AR (Homo sapiens, UniProt P30542); settings: prototype series, [3H]DPCPX, human CHO cells ref 30, 31; cited from earlier work
T1 sequence (P30542 1-326): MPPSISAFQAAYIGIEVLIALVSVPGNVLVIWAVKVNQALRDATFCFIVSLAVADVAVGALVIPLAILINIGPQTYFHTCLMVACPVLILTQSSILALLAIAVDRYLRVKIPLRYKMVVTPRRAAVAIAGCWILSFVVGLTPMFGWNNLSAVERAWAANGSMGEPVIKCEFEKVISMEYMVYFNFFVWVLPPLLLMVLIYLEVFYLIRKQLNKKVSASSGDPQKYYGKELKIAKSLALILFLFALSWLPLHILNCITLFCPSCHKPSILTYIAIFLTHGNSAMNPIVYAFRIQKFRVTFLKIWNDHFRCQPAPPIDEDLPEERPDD

hA3AR [2] = target: T2, hA3AR (Homo sapiens, UniProt P0DMS8); settings: prototype series, [3H]NECA, human HeLa cells ref 30, 31; cited from earlier work
T2 construct: expressed in transfected cells; host or cells: HeLa (HeLa-A3) cell membranes
T2 sequence (P0DMS8 1-318): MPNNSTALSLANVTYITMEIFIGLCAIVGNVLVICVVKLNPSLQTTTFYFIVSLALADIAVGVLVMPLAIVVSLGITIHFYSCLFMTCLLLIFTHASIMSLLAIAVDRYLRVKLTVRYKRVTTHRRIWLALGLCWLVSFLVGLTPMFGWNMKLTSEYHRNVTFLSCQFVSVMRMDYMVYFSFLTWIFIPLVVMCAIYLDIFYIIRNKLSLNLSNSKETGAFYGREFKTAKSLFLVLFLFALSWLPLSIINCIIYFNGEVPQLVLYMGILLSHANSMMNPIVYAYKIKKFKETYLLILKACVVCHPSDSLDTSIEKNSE

hA2AAR [3] = target: T3, hA2AAR (Homo sapiens, UniProt P29274); settings: prototype series, human HeLa cells ref 30, 31; cited from earlier work
T3 construct: expressed in transfected cells; host or cells: HeLa (HeLa-A2A) cell membranes
T3 sequence (P29274 whole entry): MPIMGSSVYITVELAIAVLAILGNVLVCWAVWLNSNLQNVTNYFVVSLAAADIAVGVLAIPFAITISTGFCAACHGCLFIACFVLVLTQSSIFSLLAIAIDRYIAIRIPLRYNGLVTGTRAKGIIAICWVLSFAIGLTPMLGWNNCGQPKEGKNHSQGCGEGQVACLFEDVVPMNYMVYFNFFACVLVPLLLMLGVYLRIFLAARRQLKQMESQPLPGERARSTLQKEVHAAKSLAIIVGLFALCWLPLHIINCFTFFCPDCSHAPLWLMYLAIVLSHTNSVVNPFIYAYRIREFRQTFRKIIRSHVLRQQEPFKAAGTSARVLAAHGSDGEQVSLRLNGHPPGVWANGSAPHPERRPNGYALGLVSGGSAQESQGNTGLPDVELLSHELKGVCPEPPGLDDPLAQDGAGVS

hA2BAR = target: T4, hA2BAR (Homo sapiens, UniProt P29275); experiment: Radioligand binding competition, [3H]DPCPX, membranes from HEK-293-A2B cells; set-up: Exp. dG: unit not given here; settings: for Exp. dG: experimental binding free energy, Supplementary Table S3, unit not given (errors in kcal/mol); for Ki: read-out: Ki hA2B
T4 construct: host or cells: HEK-293 (HEK-293-A2B) cell membranes
T4 sequence (P29275 1-332): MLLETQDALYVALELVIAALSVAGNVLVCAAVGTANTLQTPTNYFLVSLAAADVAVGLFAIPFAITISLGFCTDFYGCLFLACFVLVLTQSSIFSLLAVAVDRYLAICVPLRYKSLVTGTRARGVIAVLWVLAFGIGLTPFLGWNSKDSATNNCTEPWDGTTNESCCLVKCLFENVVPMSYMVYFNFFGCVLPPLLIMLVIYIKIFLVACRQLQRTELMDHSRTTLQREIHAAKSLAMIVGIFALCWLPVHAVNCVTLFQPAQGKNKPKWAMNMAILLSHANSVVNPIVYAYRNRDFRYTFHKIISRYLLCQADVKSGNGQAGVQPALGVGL
How it was run: (§1)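 Racemates, plus selected enantiomers after chiral resolution, were tested at 25 °C, with a 60 min incubation for one subtype and 30 min for others. Non-specific binding was defined with 10 μM or 100 μM R-PIA. Bound radioactivity was counted after washing and filtration.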

CYP3A4 = target: T5, CYP3A4 (Homo sapiens, UniProt P08684); experiment: CYP3A4 inhibition (fluorescence, substrates DBF or 7-BFC); format: biochemical; settings: for IC50: IC50 obtained by extrapolation with analysis software
T5 construct: host or cells: insect cell microsomes
T5 sequence (P08684 whole entry): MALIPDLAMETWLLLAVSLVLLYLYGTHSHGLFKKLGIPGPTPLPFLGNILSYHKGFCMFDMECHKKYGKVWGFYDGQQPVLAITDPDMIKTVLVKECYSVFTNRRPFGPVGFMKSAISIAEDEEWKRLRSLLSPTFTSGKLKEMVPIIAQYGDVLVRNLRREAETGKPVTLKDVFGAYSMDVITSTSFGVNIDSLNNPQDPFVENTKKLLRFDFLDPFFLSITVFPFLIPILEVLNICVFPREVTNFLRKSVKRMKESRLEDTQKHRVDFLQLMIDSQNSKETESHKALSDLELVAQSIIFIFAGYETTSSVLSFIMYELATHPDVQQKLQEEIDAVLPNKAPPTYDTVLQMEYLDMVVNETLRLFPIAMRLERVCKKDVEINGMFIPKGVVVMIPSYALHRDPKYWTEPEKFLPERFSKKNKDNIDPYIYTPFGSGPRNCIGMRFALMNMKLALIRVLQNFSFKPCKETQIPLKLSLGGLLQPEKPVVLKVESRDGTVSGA
Experimental: To identify potential metabolic liabilities within the series here documented, the selected A2BAR antagonists were tested in vitro for CYP3A4 inhibitory activity.
The inhibitory activity of selected compounds was evaluated by following a previously described method.[31] […] The plate was then pre-incubated at 37 °C for 5 min and the reaction initiated by the addition of a pre-warmed enzyme/substrate (E/S) mix. The E/S mix contained buffer (KH2PO4), c-DNA-expressed P450 in insect cell microsomes, substrate (DBF: dibenzylfluorescein or 7-BFC: 7-benzyloxy-4-trifluoromethyl-coumarin) and other components to give the final assay concentrations in a reaction volume of 200 μL. Reactions were terminated after various times (a specific time for each cytochrome) by addition of STOP solution (ACN/Tris–HCl 0.5 M 80:20, and NaOH 2 N for CYP3A4). Fluorescence per well was measured using a fluorescence plate reader (Tecan Infinite M1000 PRO), and percentage of inhibition was calculated. In silico predictions were performed using free web-based models (FAME 3, SmartCYP, and Xenosite).[62]−[64]

[4] = Solubility determination (nephelometry); format: physicochemical; settings: 1:99 DMSO/PSB buffer, PBS pH 7, 37 °C
Experimental: The solubility of selected compounds was evaluated by following a previously described method.[31] A 10 mM stock solution of the compound was serially diluted in 100% DMSO, and 2.5 μL of this solution was added to a 384-well UV-transparent plate (Greiner) containing 47.5 μL of PBS (pH = 7). The plate was incubated at 37 °C for 4 h, and the light scattering was measured in a NEPHELOstar Plus reader (BMG LABTECH). The data was fitted to a segmented linear regression for measuring the compound solubility.

hA3AR [5] = target: T2, hA3AR; experiment: Radioligand binding competition, [3H]NECA, membranes from HeLa-A3 cells; settings: 1 μM, [3H]NECA, human HeLa cells, n = 2
How it was run: as §1

hA1AR [6] = target: T1, hA1AR; experiment: Radioligand binding competition, [3H]DPCPX, membranes from CHO-A1 cells; settings: 1 μM, [3H]DPCPX, human CHO cells, n = 2
How it was run: as §1

hA2AAR [7] = target: T3, hA2AAR; experiment: Radioligand binding competition, [3H]ZM241385, membranes from HeLa-A2A cells; settings: for % at 1 μM hA2A (percentage displacement of specific binding): [3H]ZM241385, human HeLa cells, n = 2
How it was run: as §1

[8] = Human microsomal stability; format: in vitro ADME; settings: human microsomes; for microsomal stability percent (percentage remanent): sampling time 60 min; for microsomal CLint at 1 h / half-life at 1 h: human, pH 7.4; for microsomal CLint at 1 h: read-out: microsomal stability Clint (intrinsic clearance); for half-life at 1 h: read-out: microsomal stability t1/2
Experimental: The human microsomal stability of selected compounds was evaluated by following a previously described method.[31] The human microsomes employed were purchased from Tebu-Xenotech. The compound was incubated with the microsomes at 37 °C in a 50 mM phosphate buffer (pH = 7.4) containing 3 mM MgCl2, 1 mM NADP, 10 mM glucose-6-phosphate, and 1 U/mL glucose-6-phosphate-dehydrogenase. Samples (75 μL) were taken from each well at 0, 10, 20, 40, and 60 min and transferred to a plate containing 4 °C 75 μL acetonitrile and 30 μL of 0.5% formic acid in water was added for improving the chromatographic conditions. The plate was centrifuged (46,000 g, 30 min), and supernatants were taken and analyzed in a UPLC-MS/MS (Xevo TQD, Waters) by employing a BEH C18 column and an isocratic gradient of 0.1% formic acid in water:0.1% formic acid acetonitrile (60:40). The metabolic stability of the compounds was calculated from the logarithm of the remaining compounds at each of the time point studied.

A2B = settings: Figure 1, representative A2B antagonists ref 28-32; read-out: Ki; cited from earlier work
[9] = substrate 7-benzyloxy-4-trifluoromethyl-coumarin
[10] = displacement of specific [3H]DPCPX binding in human HEK-293 cells, n = 3
[11] = substrate dibenzylfluorescein, read-out: CYP3A4 IC50, DBF

SMILES	% at 1 μM hA1 (percentage displacement of specific binding) (hA1AR [1])	% at 1 μM hA3 (percentage displacement of specific binding) (hA3AR [2])	% at 1 μM hA2A (percentage displacement of specific binding) (hA2AAR [3])	Exp. dG (hA2BAR)	CYP3A4 % inh. at 10 μM, 7-BFC (CYP3A4; [9])	CYP3A4 % inh. at 10 μM, DBF (CYP3A4; substrate dibenzylfluorescein)	solubility at 4 h [4]	% at 1 μM hA3 (percentage displacement of specific binding) (hA3AR [5])	% at 1 μM hA1 (percentage displacement of specific binding) (hA1AR [6])	Ki (hA2BAR; [10])	% at 1 μM hA2A (percentage displacement of specific binding) (hA2AAR [7])	microsomal stability percent (percentage remanent) [8]	microsomal CLint at 1 h [8]	half-life at 1 h [8]	IC50 (CYP3A4; substrate 7-benzyloxy-4-trifluoromethyl-coumarin, read-out: CYP3A4 IC50, 7-BFC)	IC50 (CYP3A4; [11])	Ki (hA2BAR)	Ki (hA2AAR [7]; displacement of specific [3H]ZM241385 binding in human HeLa cells, n = 3, read-out: Ki hA2A)	Ki (A2B)
CCOC(=O)C1=C(C)Nc2nc3ccccc3n2C1c1ccoc1 (stereo not drawn) [III]	7%	1%	11%	-10.48															
CC1=C(C(=O)OC(C)C)C(c2ccsc2)n2c(nc3ccccc32)N1 (stereo not drawn) [VIII]	11%	21%	3%	-10.27															
CCOC(=O)C1=C(C)Nc2nc3ccccc3n2C1c1cccs1 (stereo not drawn) [V]	8%	1%	16%																
CC1=C(C(=O)OC(C)C)C(c2ccco2)n2c(nc3cc(F)c(F)cc32)N1 (stereo not drawn) [14b]					58%	39%	62 µM (≈ 23.1 µg/mL)	14%	13%	11.9 ± 1.1 nM	22%	20.97%	21.6 µL/min/mg	28.9 min					
CC1=C(C(=O)OC(C)C)C(c2ccoc2)n2c(nc3cc(Cl)ccc32)N1 (stereo not drawn) [16l]				-11.2	44%		21.9 µM (≈ 8.14 µg/mL)	1%	27%	6.1 ± 0.7 nM		41.02%	11.7 µL/min/mg	44.8 min	> 10000 nM	6360 ± 1020 nM	< 10 nM	176 ± 4 nM	
CCOC(=O)C1=C(C)Nc2nc3ccccc3n2C1c1ccco1 (stereo not drawn) [I]	5%	1%	14%	-10.8															12 nM
CC1=C(C(=O)OC(C)C)C(c2cccs2)n2c(nc3ccccc32)N1 (stereo not drawn) [VI]	1%	3%	17%	-8.767															
CC1=C(C(=O)OC(C)C)C(c2cocn2)n2c(nc3cc(F)ccc32)N1 (stereo not drawn) [18b]				-11.2	52%	31%	64.6 µM (≈ 23 µg/mL)	20%	29%	6.1 ± 0.3 nM	20%	35.15%	12.8 µL/min/mg	40.8 min		> 10000 nM	< 10 nM		
CCOC(=O)C1=C(C)Nc2nc3ccccc3n2C1c1ccsc1 (stereo not drawn) [VII]	3%	2%	10%	-10.26															

From publication PMC9841532, “Exploring the Effect of Halogenation in a Series of Potent and Selective A2B Adenosine Receptor Antagonists” (Journal of Medicinal Chemistry, 2022)
